Source: ChEMBL document CHEMBL4014306, “Pyrazolopyrimidines as Potent Stimulators for Transient Receptor Potential Canonical 3/6/7 Channels” (J Med Chem, 2017)
The source made the active and inactive calls. The rule behind the calls is not given here.

target: T1, Short transient receptor potential channel 7 (Homo sapiens, UniProt Q9HCX4); experiment: Agonist activity at human TRPC7 expressed in HEK293 cells assessed as increase in intracellular calcium level measured for 2.5 mins in presence of 2 mM Ca2+ by Fluo8-AM dye-based fluorescence assay; format: cell-based
T1 sequence (Q9HCX4 whole entry): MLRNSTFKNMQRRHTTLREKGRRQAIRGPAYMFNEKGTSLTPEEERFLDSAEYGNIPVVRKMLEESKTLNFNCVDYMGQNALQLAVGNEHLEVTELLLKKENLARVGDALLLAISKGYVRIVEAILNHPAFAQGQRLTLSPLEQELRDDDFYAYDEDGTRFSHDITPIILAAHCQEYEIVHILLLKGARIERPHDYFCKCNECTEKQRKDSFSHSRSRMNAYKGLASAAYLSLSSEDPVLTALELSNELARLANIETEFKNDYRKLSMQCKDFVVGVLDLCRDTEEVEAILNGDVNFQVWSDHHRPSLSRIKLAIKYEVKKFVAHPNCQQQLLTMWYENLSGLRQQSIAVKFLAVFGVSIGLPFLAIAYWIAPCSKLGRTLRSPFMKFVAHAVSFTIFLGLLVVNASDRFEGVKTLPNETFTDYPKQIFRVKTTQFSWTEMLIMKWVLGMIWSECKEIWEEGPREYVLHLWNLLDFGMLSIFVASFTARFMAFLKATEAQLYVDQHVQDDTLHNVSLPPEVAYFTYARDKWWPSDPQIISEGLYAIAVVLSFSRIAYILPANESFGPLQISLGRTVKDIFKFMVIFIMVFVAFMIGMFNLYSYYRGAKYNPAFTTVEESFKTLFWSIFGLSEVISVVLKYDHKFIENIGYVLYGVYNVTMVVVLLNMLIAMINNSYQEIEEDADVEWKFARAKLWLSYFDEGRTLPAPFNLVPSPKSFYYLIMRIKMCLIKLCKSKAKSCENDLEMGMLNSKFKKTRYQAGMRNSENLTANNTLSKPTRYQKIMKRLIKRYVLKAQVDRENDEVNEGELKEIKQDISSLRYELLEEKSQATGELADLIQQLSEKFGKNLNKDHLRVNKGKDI

| EC50 | SMILES |
| --- | --- |
| 213 nM | Cc1nn2c(O)cc(C3CCN(C(=O)OCc4ccccc4)CC3)nc2c1-c1ccc(Cl)cc1 |
| 90 nM | CCOC(=O)N1CCC(c2cc(O)n3nc(C)c(-c4ccc(C(F)(F)F)cc4)c3n2)CC1 |
| 314 nM | Cc1nn2c(O)cc(C3CCN(C(=O)OCc4ccccc4)CC3)nc2c1-c1ccc(F)cc1 |

| SMILES | EC50 |
| --- | --- |
| CCOC(=O)N1CCC(c2cc(O)n3nc(C)c(-c4ccc(F)cc4)c3n2)CC1 | 497 nM |

target: T2, Transient receptor potential cation channel subfamily M member 5 (Homo sapiens) (UniProt Q9NZQ8); experiment: Agonist activity at human TRPM5 expressed in HEK293 cells assessed as induction of membrane depolarization at 33 uM measured for 2.5 mins by FLIPR membrane potential dye-based fluorescence assay; format: cell-based
T2 sequence (whole entry): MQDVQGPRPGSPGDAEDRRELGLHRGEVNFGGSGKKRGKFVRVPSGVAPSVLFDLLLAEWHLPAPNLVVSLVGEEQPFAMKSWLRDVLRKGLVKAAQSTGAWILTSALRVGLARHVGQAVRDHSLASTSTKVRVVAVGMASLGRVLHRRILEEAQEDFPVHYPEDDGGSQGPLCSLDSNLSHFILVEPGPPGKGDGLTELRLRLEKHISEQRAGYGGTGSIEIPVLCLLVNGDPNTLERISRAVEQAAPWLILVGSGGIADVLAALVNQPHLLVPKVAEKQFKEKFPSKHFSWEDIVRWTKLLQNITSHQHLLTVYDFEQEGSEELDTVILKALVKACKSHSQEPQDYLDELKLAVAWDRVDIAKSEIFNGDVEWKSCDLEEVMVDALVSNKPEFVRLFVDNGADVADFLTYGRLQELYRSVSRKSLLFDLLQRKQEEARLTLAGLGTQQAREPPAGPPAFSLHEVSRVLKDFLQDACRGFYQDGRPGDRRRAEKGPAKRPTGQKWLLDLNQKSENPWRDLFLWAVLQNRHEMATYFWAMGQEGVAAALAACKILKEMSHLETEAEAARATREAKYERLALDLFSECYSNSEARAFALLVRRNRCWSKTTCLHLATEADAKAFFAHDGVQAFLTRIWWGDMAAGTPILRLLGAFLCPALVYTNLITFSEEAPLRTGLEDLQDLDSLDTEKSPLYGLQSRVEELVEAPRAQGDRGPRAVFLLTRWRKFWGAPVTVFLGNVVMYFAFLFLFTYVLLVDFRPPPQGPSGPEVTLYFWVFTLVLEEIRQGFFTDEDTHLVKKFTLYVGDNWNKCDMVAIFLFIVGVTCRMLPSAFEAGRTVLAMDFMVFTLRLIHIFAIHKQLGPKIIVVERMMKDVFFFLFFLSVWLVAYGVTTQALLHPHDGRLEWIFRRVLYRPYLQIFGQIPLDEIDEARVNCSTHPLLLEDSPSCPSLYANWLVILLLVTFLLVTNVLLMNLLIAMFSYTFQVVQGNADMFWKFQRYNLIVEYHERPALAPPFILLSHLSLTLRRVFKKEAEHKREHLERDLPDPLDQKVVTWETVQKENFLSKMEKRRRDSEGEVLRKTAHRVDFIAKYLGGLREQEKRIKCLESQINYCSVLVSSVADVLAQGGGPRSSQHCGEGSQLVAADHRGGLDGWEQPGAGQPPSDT

| Activity | SMILES |
| --- | --- |
| inactive | Cc1nn2c(O)cc(C3CCN(C(=O)OCc4ccccc4)CC3)nc2c1-c1ccc(Cl)cc1 |
| inactive | CCOC(=O)N1CCC(c2cc(O)n3nc(C)c(-c4ccc(C(F)(F)F)cc4)c3n2)CC1 |
| inactive | Cc1nn2c(O)cc(C3CCN(C(=O)OCc4ccccc4)CC3)nc2c1-c1ccc(F)cc1 |

| SMILES | Activity |
| --- | --- |
| CCOC(=O)N1CCC(c2cc(O)n3nc(C)c(-c4ccc(F)cc4)c3n2)CC1 | inactive |

target: Transient receptor potential cation channel subfamily V member 4 (Homo sapiens) (UniProt Q9HBA0); experiment: Agonist activity at human TRPV4 expressed in HEK293 cells assessed as increase in intracellular calcium level at 33 uM measured for 2.5 mins by Fluo-8-AM dye based fluorescence assay; format: cell-based
Sequence (Q9HBA0 whole entry): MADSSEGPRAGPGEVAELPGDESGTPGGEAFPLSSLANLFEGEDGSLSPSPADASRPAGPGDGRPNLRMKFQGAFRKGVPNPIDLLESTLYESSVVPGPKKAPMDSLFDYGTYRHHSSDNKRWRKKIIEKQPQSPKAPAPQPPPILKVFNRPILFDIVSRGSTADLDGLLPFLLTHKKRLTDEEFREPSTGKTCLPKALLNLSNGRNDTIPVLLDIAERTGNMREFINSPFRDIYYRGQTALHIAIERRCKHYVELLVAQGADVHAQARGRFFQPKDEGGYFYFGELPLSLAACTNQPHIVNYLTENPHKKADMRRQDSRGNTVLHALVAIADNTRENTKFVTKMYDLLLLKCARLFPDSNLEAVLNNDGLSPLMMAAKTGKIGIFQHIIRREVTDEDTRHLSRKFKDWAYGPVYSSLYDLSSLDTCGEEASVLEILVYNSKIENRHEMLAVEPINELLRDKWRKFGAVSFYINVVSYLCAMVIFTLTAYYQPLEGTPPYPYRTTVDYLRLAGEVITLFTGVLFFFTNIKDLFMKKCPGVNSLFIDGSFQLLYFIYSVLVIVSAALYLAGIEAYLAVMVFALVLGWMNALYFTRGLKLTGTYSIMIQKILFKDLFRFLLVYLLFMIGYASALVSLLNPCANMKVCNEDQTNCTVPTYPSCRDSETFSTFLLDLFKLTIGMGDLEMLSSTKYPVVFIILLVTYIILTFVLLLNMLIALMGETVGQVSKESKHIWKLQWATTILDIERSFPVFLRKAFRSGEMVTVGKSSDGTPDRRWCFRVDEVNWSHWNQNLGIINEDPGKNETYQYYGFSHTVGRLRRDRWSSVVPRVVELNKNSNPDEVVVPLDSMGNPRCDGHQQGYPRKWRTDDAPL

| Activity | SMILES |
| --- | --- |
| inactive | Cc1nn2c(O)cc(C3CCN(C(=O)OCc4ccccc4)CC3)nc2c1-c1ccc(Cl)cc1 |
| inactive | CCOC(=O)N1CCC(c2cc(O)n3nc(C)c(-c4ccc(C(F)(F)F)cc4)c3n2)CC1 |
| inactive | Cc1nn2c(O)cc(C3CCN(C(=O)OCc4ccccc4)CC3)nc2c1-c1ccc(F)cc1 |

| SMILES | Activity |
| --- | --- |
| CCOC(=O)N1CCC(c2cc(O)n3nc(C)c(-c4ccc(F)cc4)c3n2)CC1 | inactive |
